Assays:
[1] = test system: patients with Type 2 diabetes; experiment: Clinical study (12-week core + 40-week extension): HbA1c in patients with Type 2 diabetes on metformin; assay type: in vivo, human; conditions: over one year
Procedure: This is a 40-week extension to core study, a 12-week randomized, parallel group, multi-center, placebo-controlled trial in patients with Type 2 diabetes who are already receiving metformin at a stable dosage of 1500-3000 mg daily. Patients treated with placebo, LAF237 50 mg OD (omnia die/once a day) in addition to metformin during the core study and maintained their treatment regimen in the extension. […] All patients are randomized to receive either placebo or LAF237 (50 mg) once dally for 52 weeks in addition to metformin at an unchanged dosage. During the 4-week run-in period, all patients receive LAF237 placebo tablets and are assessed for inclusion in the study. Patients meeting the inclusion criteria at the Baseline visit receives randomized treatment once daily for 52 weeks. The total study duration for each patient is 56 weeks. Throughout the study, patients are required to maintain their prior diet and exercise habits and to continue to take metformin at an unchanged dosage. […] This is measured by using Tosoh ion exchange High Performance Liquid Chromotography (HPLC). Primus Affinity HPLC is used as a back-up method if hemoglobin variants or hemoglobin degradation peaks are observed. The primary efficacy variable is change from baseline in HbA1c at the end of the study. […]

[2] = test system: patients with Type 2 diabetes; experiment: Clinical study: safety and tolerability, study completion; assay type: in vivo, human; conditions: 52 weeks, in combination with metformin
Excerpt: Safety assessments consist of monitoring and recording all non-serious and serious adverse events (SAE), the regular monitoring of hematology, blood chemistry and urinalysis values, regular measurement of vital signs, the performance of physical examinations and body weight measurements. The assessment of safety is based mainly on the frequency of adverse events and on the number of laboratory values that fall outside of pre-determined ranges. Other safety data (e.g. vital signs) will be considered as appropriate.

N#C[C@@H]1CCCN1C(=O)CNC12CC3CC(CC(O)(C3)C1)C2 [LAF237, (S)-1-[(3-hydroxy-1-adamantyl)amino]acetyl-2-cyano-pyrrolidine]
course of HbA1c levels (in words) [1]: decreased significantly
tolerability [2]: well tolerated

— patent US7935723B2, “Use of organic compounds” (Novartis Pharma AG, priority 2004, dated 2011)
